# Laboratory results from patent US11173173B2, “Methods for treating chemoresistant cancer-initiating cells” (UNIVERSITY OF CONNECTICUT, priority 2015, dated 2021).
# Assays:
# [1] = target: T1, EGFP-AKT and mCherry-β-catenin (Mus musculus, UniProt Q02248); assay: FRET assay (acceptor photobleaching) of Akt/β-catenin interaction in 293T cells; assay type: cell-based; settings: 25, 50, 100, 200 nM; vehicle 2.24%
# T1 construct: host or cells: 293T cells
# T1 sequence (Q02248 1-781): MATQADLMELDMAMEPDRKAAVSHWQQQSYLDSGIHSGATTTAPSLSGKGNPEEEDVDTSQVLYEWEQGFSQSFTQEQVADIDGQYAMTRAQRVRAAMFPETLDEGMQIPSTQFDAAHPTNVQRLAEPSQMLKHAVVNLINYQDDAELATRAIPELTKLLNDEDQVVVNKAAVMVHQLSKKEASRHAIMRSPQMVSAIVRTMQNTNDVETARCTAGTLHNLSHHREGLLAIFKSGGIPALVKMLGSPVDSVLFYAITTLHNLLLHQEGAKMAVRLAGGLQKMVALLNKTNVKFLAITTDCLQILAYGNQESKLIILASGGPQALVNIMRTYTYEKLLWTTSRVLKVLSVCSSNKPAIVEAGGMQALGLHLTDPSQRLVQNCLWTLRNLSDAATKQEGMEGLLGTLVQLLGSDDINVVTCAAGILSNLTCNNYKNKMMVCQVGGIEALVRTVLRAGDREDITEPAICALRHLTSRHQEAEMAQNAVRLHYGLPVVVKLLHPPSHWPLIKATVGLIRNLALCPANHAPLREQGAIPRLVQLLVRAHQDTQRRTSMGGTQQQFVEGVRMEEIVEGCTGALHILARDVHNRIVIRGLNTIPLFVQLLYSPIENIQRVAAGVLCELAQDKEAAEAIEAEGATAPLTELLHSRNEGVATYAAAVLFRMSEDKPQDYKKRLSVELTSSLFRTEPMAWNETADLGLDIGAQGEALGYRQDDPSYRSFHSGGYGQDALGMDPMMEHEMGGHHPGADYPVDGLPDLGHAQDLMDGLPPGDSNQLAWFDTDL
# Description: FRET measurement was performed by using the acceptor photobleaching method. […] A Perkin-Elmer Ultraview spinning disc system with a CSU-X1 Yokogawa disc was used for imaging. A 40X 1.2 NA Plan-apochromatic objective was used, and emission was collected onto a C9100 Hamamatsu Photonics EM-CCD. EGFP was excited with a 488 nm laser, and emission was collected through a 500-555 nm band pass filter. mCherry was illuminated, and photobleached, with a 561 nm laser. Emission of mCherry was collected with a 580-650 nm band pass filter. 6 images of EGFP were acquired before and 8 images after bleaching of the mCherry with intense 561 nm light. After subtraction of camera background, the average intensity of EGFP in a region of interest spanning the bleached cell was determined in the 4 images before acceptor bleach (I1), or the 4 images after acceptor bleach (I2). FRET efficiency is reported as 1−(I1/I2). Calculations were based on >500 cell images.
# To test whether DXR could block interaction between Akt and β-catenin, Fluorescence Resonance Energy Transfer (FRET) analysis using EGFP-AKT and mCherry-β-catenin transfected cells was performed.
# [2] = tested on: tumorigenic cells (functional LSCs) in BM of treated leukemic mice; assay: Tumorigenic assay: BM of treated leukemic mice transplanted into NSG recipients; assay type: in vivo, mouse
# Description: At 12 days post-treatment, BM was harvested from treated mice and transplanted into sub-lethally irradiated NSG recipients. a, Treatment schematic and Kaplan-Meier curves of recipient mice. b, Recipients of BM from [Low]DXR only treated leukemic mice were analyzed by flow cytometry at 6 months post-transplant. […] Dashed line indicates day of final [Low]nanoDXR treatment. f, Surviving [Low]nanoDXR treated mice were analyzed by flow cytometry at 230 days post-treatment.
# At 12 days post-treatment, BM was harvested from treated mice and transplanted into sub-lethally irradiated NSG recipients. a, Treatment schematic and Kaplan-Meier curves of recipient mice.
# Tumorigenic assays were performed by transplanting 0.5, 1.5, or 4.5×10^4 bone marrow cells from treated mice at 12 days post-treatment into 3.25 Gy irradiated NSG recipient mice. 10 recipients were used for each dose from each group. One male and one female donor was used for each group. Leukemia was assessed in mice euthanized due to poor health by analyzing CD45^Hi CD3^+ cell frequency. Mice having >20% Blasts in the bone marrow were considered leukemic.
# A cohort of mice was established as in FIG. 3a. One week after completion of treatment with vehicle, chemotherapy, [Low]DXR, or chemotherapy+[Low]DXR, we transplanted BM from treated mice into irradiated NSG recipients to test for tumorigenic cells.
# [3] = tested on: pS^552-β-catenin; assay: Western analysis of pS552-β-catenin in compound-treated TOP and FOP cells; settings: TOP and FOP cells treated 48 hours at EC90, EC50, EC25
# Description: (§1) Cytotoxicity profiles (CTG) of compounds were also determined. […] TOP and FOP cells were treated with candidate compounds at EC90, EC50 and EC25 derived from (b) for 48 hours, washed and flash frozen for Western analysis (c).
# (§2) Activity of compounds was tested against HEK-TOP cells vs. HEK FOP cells for inhibition of luciferase activity. The cytotoxicity profiles of the compounds were also tested using Cell Titer Glo assay (Promega) on HEK-TOP cell lines. […] The HEK cells and HEK Top cells were plated at 300,000 cells/well in 6 well plates and were treated in duplicate with EC90, EC50 and EC25 concentrations of the 25 repurchased compounds as well as three controls. After 48 h of exposure, the cells were washed with PBS and flash frozen. The frozen cells were lysed directly in plates for Western analysis.
# [4] = Cardiotoxicity based on cardiac troponin I level and histology; assay type: in vivo; settings: 1 mg/kg (8 doses) and high single dose
# Description: Data are presented as mean±SD (n=5) *P<0.05, **P<0.01. c provides cardiac Troponin I level after administration of free doxorubicin (DOX) and doxorubicin nanoparticles (DOX-NPs).
# The doxorubicin nanoparticles have an average particle diameter of 138 nm. […] The release of Dox in PBS was steady at approximately 2% per day, with 24% released in 12 days. […] Cardiotoxicity was tested based on cardiac troponin I level and histology.
# [5] = tested on: LSCs and HSPCs of leukemic Pten:β-catAct mice; assay: Example 6: LSCs and HSPCs in BM of leukemic mice, Doxo vs NanoDoxo vs Doxil with chemotherapy; assay type: in vivo, mouse; settings: Doxo 0.5 mg/kg x5 daily, NanoDoxo or Doxil single 0.8 mg/kg, BM 5-6 days after treatment
# Description: All drugs were solubilized in 45% (2-Hydroxypropyl)-β-cyclodextrin (HBC).
# [6] = tested on: pan β-catenin; assay: Western analysis of pan β-catenin in compound-treated TOP and FOP cells; settings: TOP and FOP cells treated 48 hours at EC90, EC50, EC25
# Description: as §1, §2
smiles,measurement,setting,value
"COc1cccc2c1C(=O)c1c(O)c3c(c(O)c1C2=O)C[C@@](O)(C(=O)CO)C[C@@H]3O[C@H]1C[C@H](N)[C@H](O)[C@H](C)O1 [DXR, doxorubicin]",FRET efficiency between EGFP-AKT and mCherry-β-catenin,[1],decreased with increasing concentrations of DXR
same,"blast cells, LSCs and HSPCs in surviving recipients",[2]; 6 months post-transplant,"only trace levels of blast cells and LSCs, and HSPCs were within normal parameters"
same,recipients remaining healthy nearly 6 months post-transplant,[2]; recipients of BM from treated leukemic mice,29/30
same,inhibition of pS552-β-catenin (Western),[3],effectively inhibited pS^552-β-catenin
same,cardiotoxicity (cardiac troponin I level and histology),[4],showed cardiotoxicity
same,HSPC recovery in BM,[5],facilitates recovery of HSPCs
same,LSCs in BM,[5],prevents this expansion
same,effect on pan β-catenin (Western),[6],only minimal effect on pan β-catenin
